Test results reported in ChEMBL document CHEMBL5726630, “Inhibitors of human immunodeficiency virus replication” (2019).

test: Biological Methods: HIV cell culture assay-MT-2 cells, 293T cells and the proviral DNA clone of NL4-3 virus were obtained from the NIH AIDS Research and Reference Reagent Program. MT-2 cells were propagated in RPMI 1640 media supplemented with 10% heat inactivated fetal bovine serum (FBS), 100 jag/ml penicillin G and up to 100 units/mL streptomycin. The 293T cells were propagated in DMEM media supplemented with 10% heat inactivated FBS, 100 μg/mL penicillin G and 100 μg/mL streptomycin. A recombinant NL4-3 proviral clone, in which a section of the nef gene was replaced with the Renilla luciferase gene, was used to make the reference virus used in these studies. The recombinant virus was prepared through transfection of the recombinant NL4-3 proviral clone into 293T cells using Transit-293 Transfection Reagent from Mirus Bio LLC (Madison, Wis.). Supernatant was harvested after 2-3 days and the amount of virus present was titered in MT-2 cells using luciferase enzyme activity as a marker by measuring luciferase enzyme activity. Luciferase was quantitated using the EnduRen Live Cell Substrate from Promega (Madison, Wis.). Antiviral activities of compounds toward the recombinant virus were quantified by measuring luciferase activity in MT-2 cells infected for 4-5 days with the recombinant virus in the presence of serial dilutions of the compound.; type: cell-based

C[C@H]1CCc2ccccc2N1S(=O)(=O)NC(=O)N[C@@H](Cc1cc(F)cc(F)c1)C(=O)N(C)c1ccc2scnc2c1 and C[C@@H]1CCc2ccccc2N1S(=O)(=O)NC(=O)N[C@@H](Cc1cc(F)cc(F)c1)C(=O)N(C)c1ccc2scnc2c1 are within 1.5-fold of each other in EC50: 0.09 µM for the first, 0.1 µM for the second.

First: C[C@@H]1Cc2cccnc2N1S(=O)(=O)NC(=O)N[C@@H](Cc1cc(F)cc(F)c1)C(=O)N(C)c1ccc2scnc2c1
Second: C[C@H]1Cc2cccnc2N1S(=O)(=O)NC(=O)N[C@@H](Cc1cc(F)cc(F)c1)C(=O)N(C)c1ccc2scnc2c1
The EC50 of the first is 2.5-fold lower: 0.02 µM for the first, 0.05 µM for the second.

For CC1CN(S(=O)(=O)NC(=O)N[C@@H](Cc2cc(F)cc(F)c2)C(=O)N(C)c2ccc3scnc3c2)c2ncccc21 (single isomer, unassigned), the EC50 was < 0.01 µM.
